Test results taken from patent US9617226B2 (AbbVie Deutschland GmbH & Co. KG, priority 2014, dated 2017).

Columns and labels:
[1] = biological target: human vasopressin V1a receptor (Homo sapiens (Human), UniProt P37288); assay: Vasopressin V1a receptor binding assay; details: selectivity quotient, human V1a vs human V1b
Procedure: The test substances were dissolved in a concentration of 5 mM M in DMSO. Further dilution of these DMSO solutions took place as described for V1b.
The membrane pellet was again homogenized in a High-Pressure-Homogenizer, Polytec 50K at 1500 PSI (Heinemann, Germany) and subsequently taken up in 50 mM Tris-HCl, pH 7.4, homogenized and stored in aliquots frozen in liquid nitrogen at −190° C.
The incubation buffer was: 50 mM Tris, 10 mM MgCl2, 0.1% BSA, pH 7.4.
Duplicate determinations were carried out.
After incubation (60 minutes at room temperature), the samples were processed as described for V1b.
The binding parameters were calculated by nonlinear regression in SAS.

[2] = biological target: human vasopressin V1b receptor (Homo sapiens (Human), UniProt P47901); assay: biochemical
Sequence of human vasopressin V1b receptor (P47901 whole entry): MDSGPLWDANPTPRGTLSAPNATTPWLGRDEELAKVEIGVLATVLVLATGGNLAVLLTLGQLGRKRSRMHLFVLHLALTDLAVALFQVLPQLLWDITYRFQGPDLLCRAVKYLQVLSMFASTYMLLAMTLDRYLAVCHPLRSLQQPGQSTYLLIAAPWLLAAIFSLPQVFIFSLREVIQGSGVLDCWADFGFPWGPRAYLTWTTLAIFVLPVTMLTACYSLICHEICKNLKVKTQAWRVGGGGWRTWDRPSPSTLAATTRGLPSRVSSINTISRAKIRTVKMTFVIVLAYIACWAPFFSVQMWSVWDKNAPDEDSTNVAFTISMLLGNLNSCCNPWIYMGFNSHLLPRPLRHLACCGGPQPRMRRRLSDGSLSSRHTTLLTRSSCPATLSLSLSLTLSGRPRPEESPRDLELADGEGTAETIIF

Sequence of human vasopressin V1a receptor (P37288 whole entry): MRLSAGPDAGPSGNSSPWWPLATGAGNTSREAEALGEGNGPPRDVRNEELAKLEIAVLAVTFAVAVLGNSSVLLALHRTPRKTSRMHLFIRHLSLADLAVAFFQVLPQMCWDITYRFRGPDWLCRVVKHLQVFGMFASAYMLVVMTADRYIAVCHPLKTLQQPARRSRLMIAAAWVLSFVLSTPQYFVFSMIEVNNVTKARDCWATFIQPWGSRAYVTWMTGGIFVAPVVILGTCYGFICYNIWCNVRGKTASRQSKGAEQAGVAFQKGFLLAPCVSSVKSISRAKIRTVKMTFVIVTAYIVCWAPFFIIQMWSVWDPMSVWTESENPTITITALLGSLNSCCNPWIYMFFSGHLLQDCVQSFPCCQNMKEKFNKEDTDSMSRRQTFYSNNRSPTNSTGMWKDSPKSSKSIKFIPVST

Ki(h-V1a)/Ki(h-V1b) [1]	Ki [2]	Compound
+++ (>75)	10 to 100 nM	CC(C)NC(=O)Cn1c(-c2cccc(Cl)c2)nc2ccc([C@H]3C[C@@H](CN4CC(C)OC(C)C4)C3)cc2c1=O (relative stereo) [Example 43, cis-2-[2-(3-Chlorophenyl)-6-[3-[(2,6-dimethylmorpholin-4-yl)methyl]cyclobutyl]-4-oxo-quinazolin-3-yl]-N-isopropyl-acetamide]
+++ (>75)	1 to 10 nM	CC(C)NC(=O)Cn1c(-c2cccc(Cl)c2)nc2ccc([C@H]3C[C@@H](CN4CCCCCC4)C3)cc2c1=O [Example 21, cis-2-[6-[3-(Azepan-1-ylmethyl)cyclobutyl]-2-(3-chlorophenyl)-4-oxo-quinazolin-3-yl]-N-isopropyl-acetamide]
+++ (>75)	1 to 10 nM	CC(C)NC(=O)Cn1c(-c2cccc(Cl)c2)nc2ccc([C@H]3C[C@@H](CN4CC[C@@H](C)C4)C3)cc2c1=O [Example 34, cis-2-[2-(3-Chlorophenyl)-6-[3-[[(3R)-3-methylpyrrolidin-1-yl]methyl]cyclobutyl]-4-oxo-quinazolin-3-yl]-N-isopropyl-acetamide]
+++ (>75)	< 1 nM	CC(C)(C)NC(=O)Cn1c(-c2cccc(Cl)c2)nc2ccc([C@H]3C[C@@H](CN4CCCCC4)C3)cc2c1=O [Example 26, cis-N-tert-Butyl-2-[2-(3-chlorophenyl)-4-oxo-6-[3-(1-piperidylmethyl)cyclobutyl]-quinazolin-3-yl]acetamide]
+++ (>75)	10 to 100 nM	CC(C)NC(=O)Cn1c(-c2cccc(Cl)c2)nc2ccc([C@H]3C[C@@H](CN4CCC(C#N)CC4)C3)cc2c1=O [Example 7, Cis-2-[2-(3-Chlorophenyl)-6-[3-[(4-cyano-1-piperidyl)methyl]cyclobutyl]-4-oxo-quinazolin-3-yl]-N-isopropyl-acetamide]
+++ (>75)	1 to 10 nM	CC(C)NC(=O)Cn1c(-c2cccc(Cl)c2)nc2ccc([C@H]3C[C@@H](CN4CCCOCC4)C3)cc2c1=O [Example 25, cis-2-[2-(3-Chlorophenyl)-6-[3-(1,4-oxazepan-4-ylmethyl)cyclobutyl]-4-oxo-quinazolin-3-yl]-N-isopropyl-acetamide]
+++ (>75)	1 to 10 nM	CC(C)NC(=O)Cn1c(-c2cccc(Cl)c2)nc2ccc([C@H]3C[C@@H](CN4CCC(F)CC4)C3)cc2c1=O [Example 30, cis-2-[2-(3-Chlorophenyl)-6-[3-[(4-fluoro-1-piperidyl)methyl]cyclobutyl]-4-oxo-quinazolin-3-yl]-N-isopropyl-acetamide]
+++ (>75)	1 to 10 nM	CC(C)NC(=O)Cn1c(-c2cccc(Cl)c2)nc2ccc([C@H]3C[C@@H](CN4CCCC(F)C4)C3)cc2c1=O (relative stereo) [Example 39, cis-2-[2-(3-Chlorophenyl)-6-[3-[(3-fluoro-1-piperidyl)methyl]cyclobutyl]-4-oxo-quinazolin-3-yl]-N-isopropyl-acetamide]
++ (25-75)	10 to 100 nM	C[C@@H](NC(=O)Cn1c(-c2cccc(Cl)c2)nc2ccc([C@H]3C[C@@H](CN4CCCCC4)C3)cc2c1=O)C(F)(F)F [Example 46]
+++ (>75)	10 to 100 nM	CC(C)NC(=O)Cn1c(-c2cccc(Cl)c2)nc2ccc([C@H]3C[C@@H](CN4CCCC4)C3)cc2c1=O [Example 9, cis-2-[2-(3-Chlorophenyl)-4-oxo-6-[3-(pyrrolidin-1-ylmethyl)cyclobutyl]quinazolin-3-yl]-N-isopropyl-acetamide]
	1 to 10 nM	CC(C)NC(=O)Cn1c(-c2cccc(Cl)c2)nc2ccc([C@H]3C[C@@H](CN4CC(O)C4)C3)cc2c1=O [Example 40, cis-2-[2-(3-Chlorophenyl)-6-[3-[(3-hydroxyazetidin-1-yl)methyl]cyclobutyl]-4-oxo-quinazolin-3-yl]-N-isopropyl-acetamide]
